From patent US20090156518A1, “STABLE PHARMACEUTICAL COMPOSITION COMPRISING BETA-LACTAM ANTIBIOTIC AND BUFFER” (priority 2006, published 2009)

Assay: amounts of β-lactam antibiotic, β-lactamase inhibitor (C18 reverse-phase LC, UV-VIS) and aminoglycoside (HPLC-ELSD) in solution over time
Type: physicochemical

CCN1CCN(C(=O)N[C@@H](C(=O)N[C@@H]2C(=O)N3C(C(=O)O)=C(CSc4nnnn4C)CS[C@H]23)c2ccc(O)cc2)C(=O)C1=O [Cefoperazone sodium]
amount of component as percentage with respect to the amount at the initial time (Example 4: cefoperazone sodium 4 g, sulbactam sodium 0.5 g, gentamicin 80 mg, citrate pH 6.75, 200 mL water, room temperature, Time 0 h): 101.4% | amount of component as percentage with respect to the amount at the initial time (Example 4: cefoperazone sodium 4 g, sulbactam sodium 0.5 g, gentamicin 80 mg, citrate pH 6.75, 200 mL water, room temperature, Time 1 h): 98.66% | amount of component as percentage with respect to the amount at the initial time (Example 4: cefoperazone sodium 4 g, sulbactam sodium 0.5 g, gentamicin 80 mg, citrate pH 6.75, 200 mL water, room temperature, Time 2 h): 98.79% | amount of component as percentage with respect to the amount at the initial time (Example 4: cefoperazone sodium 4 g, sulbactam sodium 0.5 g, gentamicin 80 mg, citrate pH 6.75, 200 mL water, room temperature, Time 4 h): 101.5% | amount of component as percentage with respect to the amount at the initial time (Example 4: cefoperazone sodium 4 g, sulbactam sodium 0.5 g, gentamicin 80 mg, citrate pH 6.75, 200 mL water, room temperature, Time 6 h): 107.4% | amount of component as percentage with respect to the amount at the initial time (Example 5: freeze-dried cefoperazone sodium 4 g, sulbactam sodium 0.5 g, citrate pH 6.75, + amikacin sulfate 500 mg, 7 days 0° C., dissolved in 100 mL water, Time 0 h): 101.4% | amount of component as percentage with respect to the amount at the initial time (Example 5: freeze-dried cefoperazone sodium 4 g, sulbactam sodium 0.5 g, citrate pH 6.75, + amikacin sulfate 500 mg, 7 days 0° C., dissolved in 100 mL water, Time 1 h): 98.66% | amount of component as percentage with respect to the amount at the initial time (Example 5: freeze-dried cefoperazone sodium 4 g, sulbactam sodium 0.5 g, citrate pH 6.75, + amikacin sulfate 500 mg, 7 days 0° C., dissolved in 100 mL water, Time 2 h): 98.79% | amount of component as percentage with respect to the amount at the initial time (Example 5: freeze-dried cefoperazone sodium 4 g, sulbactam sodium 0.5 g, citrate pH 6.75, + amikacin sulfate 500 mg, 7 days 0° C., dissolved in 100 mL water, Time 4 h): 101.5% | amount of component as percentage with respect to the amount at the initial time (Example 5: freeze-dried cefoperazone sodium 4 g, sulbactam sodium 0.5 g, citrate pH 6.75, + amikacin sulfate 500 mg, 7 days 0° C., dissolved in 100 mL water, Time 6 h): 107.4% | amount of component as percentage with respect to the amount at the initial time (Example 6: freeze-dried cefoperazone sodium 4 g, sulbactam sodium 1 g, citrate pH 6.75, + etimicin sulfate 200 mg, 7 days 0° C., dissolved in 100 mL water, Time 0 h): 110.4% | amount of component as percentage with respect to the amount at the initial time (Example 6: freeze-dried cefoperazone sodium 4 g, sulbactam sodium 1 g, citrate pH 6.75, + etimicin sulfate 200 mg, 7 days 0° C., dissolved in 100 mL water, Time 1 h): 99.48% | amount of component as percentage with respect to the amount at the initial time (Example 6: freeze-dried cefoperazone sodium 4 g, sulbactam sodium 1 g, citrate pH 6.75, + etimicin sulfate 200 mg, 7 days 0° C., dissolved in 100 mL water, Time 2 h): 101.3% | amount of component as percentage with respect to the amount at the initial time (Example 6: freeze-dried cefoperazone sodium 4 g, sulbactam sodium 1 g, citrate pH 6.75, + etimicin sulfate 200 mg, 7 days 0° C., dissolved in 100 mL water, Time 4 h): 98.66% | amount of component as percentage with respect to the amount at the initial time (Example 6: freeze-dried cefoperazone sodium 4 g, sulbactam sodium 1 g, citrate pH 6.75, + etimicin sulfate 200 mg, 7 days 0° C., dissolved in 100 mL water, Time 6 h): 98.02% | amount of component as percentage with respect to the amount at the initial time (Example 6: freeze-dried cefoperazone sodium 4 g, sulbactam sodium 1 g, citrate pH 6.75, + etimicin sulfate 200 mg, 7 days 0° C., dissolved in 100 mL water, Time 8 h): 99.30% | amount of component as percentage with respect to the amount at the initial time (Example 14: freeze-dried cefoperazone sodium 4 g, sulbactam sodium 2 g, citrate pH 6.75, 7 days 0° C., in 100 mL water, 10 mL + gentamicin sulfate 16 mg, room temperature, Time 0 h): 98.42% | amount of component as percentage with respect to the amount at the initial time (Example 14: freeze-dried cefoperazone sodium 4 g, sulbactam sodium 2 g, citrate pH 6.75, 7 days 0° C., in 100 mL water, 10 mL + gentamicin sulfate 16 mg, room temperature, Time 1 h): 97.39% | amount of component as percentage with respect to the amount at the initial time (Example 14: freeze-dried cefoperazone sodium 4 g, sulbactam sodium 2 g, citrate pH 6.75, 7 days 0° C., in 100 mL water, 10 mL + gentamicin sulfate 16 mg, room temperature, Time 2 h): 97.46% | amount of component as percentage with respect to the amount at the initial time (Example 14: freeze-dried cefoperazone sodium 4 g, sulbactam sodium 2 g, citrate pH 6.75, 7 days 0° C., in 100 mL water, 10 mL + gentamicin sulfate 16 mg, room temperature, Time 4 h): 94.70% | amount of component as percentage with respect to the amount at the initial time (Example 14: freeze-dried cefoperazone sodium 4 g, sulbactam sodium 2 g, citrate pH 6.75, 7 days 0° C., in 100 mL water, 10 mL + gentamicin sulfate 16 mg, room temperature, Time 6 h): 93.02% | amount of component as percentage with respect to the amount at the initial time (Example 15: freeze-dried cefoperazone sodium 4 g, sulbactam sodium 4 g, citrate pH 6.75, 7 days 0° C., in 100 mL water, 10 mL + gentamicin sulfate 16 mg, room temperature, Time 0 h): 101.7% | amount of component as percentage with respect to the amount at the initial time (Example 15: freeze-dried cefoperazone sodium 4 g, sulbactam sodium 4 g, citrate pH 6.75, 7 days 0° C., in 100 mL water, 10 mL + gentamicin sulfate 16 mg, room temperature, Time 1 h): 96.06% | amount of component as percentage with respect to the amount at the initial time (Example 15: freeze-dried cefoperazone sodium 4 g, sulbactam sodium 4 g, citrate pH 6.75, 7 days 0° C., in 100 mL water, 10 mL + gentamicin sulfate 16 mg, room temperature, Time 2 h): 95.72% | amount of component as percentage with respect to the amount at the initial time (Example 15: freeze-dried cefoperazone sodium 4 g, sulbactam sodium 4 g, citrate pH 6.75, 7 days 0° C., in 100 mL water, 10 mL + gentamicin sulfate 16 mg, room temperature, Time 4 h): 97.32% | amount of component as percentage with respect to the amount at the initial time (Example 15: freeze-dried cefoperazone sodium 4 g, sulbactam sodium 4 g, citrate pH 6.75, 7 days 0° C., in 100 mL water, 10 mL + gentamicin sulfate 16 mg, room temperature, Time 6 h): 69.95% | amount of component as percentage with respect to the amount at the initial time (Example 16: 10 mL of the final solution (cefoperazone sodium, tazobactam sodium, etimicin sulfate, citrate) + gentamicin sulfate 16 mg, Time 0 h): 92.44% | amount of component as percentage with respect to the amount at the initial time (Example 16: 10 mL of the final solution (cefoperazone sodium, tazobactam sodium, etimicin sulfate, citrate) + gentamicin sulfate 16 mg, Time 1 h): 104.6% | amount of component as percentage with respect to the amount at the initial time (Example 16: 10 mL of the final solution (cefoperazone sodium, tazobactam sodium, etimicin sulfate, citrate) + gentamicin sulfate 16 mg, Time 2 h): 102.4% | amount of component as percentage with respect to the amount at the initial time (Example 16: 10 mL of the final solution (cefoperazone sodium, tazobactam sodium, etimicin sulfate, citrate) + gentamicin sulfate 16 mg, Time 4 h): 97.95% | amount of component as percentage with respect to the amount at the initial time (Example 16: 10 mL of the final solution (cefoperazone sodium, tazobactam sodium, etimicin sulfate, citrate) + gentamicin sulfate 16 mg, Time 6 h): 98.90% | amount of component as percentage with respect to the amount at the initial time (Example 16: 10 mL of the final solution (cefoperazone sodium, tazobactam sodium, etimicin sulfate, citrate) + gentamicin sulfate 16 mg, Time 8 h): 102.9% | amount of component as percentage with respect to the amount at the initial time (Example 16: freeze-dried cefoperazone sodium 4 g, tazobactam sodium 1 g, citrate pH 6.75, 7 days 0° C., in 100 mL water, 10 mL + etimicin sulfate 20 mg, room temperature, Time 0 h): 102.9% | amount of component as percentage with respect to the amount at the initial time (Example 16: freeze-dried cefoperazone sodium 4 g, tazobactam sodium 1 g, citrate pH 6.75, 7 days 0° C., in 100 mL water, 10 mL + etimicin sulfate 20 mg, room temperature, Time 1 h): 108.6% | amount of component as percentage with respect to the amount at the initial time (Example 16: freeze-dried cefoperazone sodium 4 g, tazobactam sodium 1 g, citrate pH 6.75, 7 days 0° C., in 100 mL water, 10 mL + etimicin sulfate 20 mg, room temperature, Time 2 h): 104.6% | amount of component as percentage with respect to the amount at the initial time (Example 16: freeze-dried cefoperazone sodium 4 g, tazobactam sodium 1 g, citrate pH 6.75, 7 days 0° C., in 100 mL water, 10 mL + etimicin sulfate 20 mg, room temperature, Time 4 h): 99.50% | amount of component as percentage with respect to the amount at the initial time (Example 16: freeze-dried cefoperazone sodium 4 g, tazobactam sodium 1 g, citrate pH 6.75, 7 days 0° C., in 100 mL water, 10 mL + etimicin sulfate 20 mg, room temperature, Time 6 h): 98.91% | amount of component as percentage with respect to the amount at the initial time (Example 16: freeze-dried cefoperazone sodium 4 g, tazobactam sodium 1 g, citrate pH 6.75, 7 days 0° C., in 100 mL water, 10 mL + etimicin sulfate 20 mg, room temperature, Time 8 h): 103.4% | amount of component as percentage with respect to the amount at the initial time (Example 17: freeze-dried cefoperazone sodium 4 g, sulbactam sodium 1 g, citrate pH 6.75, 7 days 0° C., in 100 mL water, 10 mL + amikacin sulfate 40 mg, room temperature, Time 0 h): 92.30% | amount of component as percentage with respect to the amount at the initial time (Example 17: freeze-dried cefoperazone sodium 4 g, sulbactam sodium 1 g, citrate pH 6.75, 7 days 0° C., in 100 mL water, 10 mL + amikacin sulfate 40 mg, room temperature, Time 1 h): 94.80% | amount of component as percentage with respect to the amount at the initial time (Example 17: freeze-dried cefoperazone sodium 4 g, sulbactam sodium 1 g, citrate pH 6.75, 7 days 0° C., in 100 mL water, 10 mL + amikacin sulfate 40 mg, room temperature, Time 2 h): 94.06% | amount of component as percentage with respect to the amount at the initial time (Example 17: freeze-dried cefoperazone sodium 4 g, sulbactam sodium 1 g, citrate pH 6.75, 7 days 0° C., in 100 mL water, 10 mL + amikacin sulfate 40 mg, room temperature, Time 4 h): 94.12% | amount of component as percentage with respect to the amount at the initial time (Example 17: freeze-dried cefoperazone sodium 4 g, sulbactam sodium 1 g, citrate pH 6.75, 7 days 0° C., in 100 mL water, 10 mL + amikacin sulfate 40 mg, room temperature, Time 6 h): 93.15% | amount of component as percentage with respect to the amount at the initial time (Example 17: freeze-dried cefoperazone sodium 4 g, sulbactam sodium 1 g, citrate pH 6.75, 7 days 0° C., in 100 mL water, 10 mL + amikacin sulfate 40 mg, room temperature, Time 8 h): 94.50%
